In publication PMC6270165, “Synthesis and Biological Evaluation of 3-Benzisoxazolyl-4-indolylmaleimides as Potent, Selective Inhibitors of Glycogen Synthase Kinase-3β” (Molecules, 2013):

Experiments:
Format in all cases: biochemical
GSK-3β = biological target: T1, GSK-3β (Homo sapiens, UniProt P49841); assay: GSK-3β kinase assay (Z'-LYTE Kinase Assay kit Ser/Thr 9 Peptide)
T1 construct: GST (N, cleaved yes); made in house; host or cells: Escherichia coli BL21-Codon Plus (DE3)
Protocol: (§1) GSK3β belongs to CMGC family. Here, the other family members were used to evaluate the selectivity of GSK3β inhibitors, including PKC-epsilon (AGC family), JAK2 (TK family), Braf (TKL family), DRAK2 (CAMK family) and IKKβ (other family).The recombinant GST-GSK-3βprotein was expressed in Escherichia coli strain BL21-Codon Plus (DE3), purified by GSTrap affinity chromatography, and cleaved by thrombin. The GSK-3β kinase assay was carried out with the Z´-LYTETM Kinase Assay kit Ser/Thr 9 Peptide substrate (Invitrogen, Grand, NY, USA) in 10 μL reaction volume containing 50 nM enzyme, 30 μM ATP and 2 μM substrate peptide. Drak2 Proteins were presented by professor Jiang-ping Wu (Laboratory of Immunology, Research Centre, CHUM, Notre Dame Hospital, Pavilion DeSève). The Drak2 kinase reaction was performed in a final assay volume of 3.4 μL using the ADP-GLO Kinase Assay Kit (Promega, Madison, WI, USA), according the ADP-GLO protocol and read on an EnVision plate reader. The recombinant PKC-epsilon, IKKβ, and JAK2 with N-terminal His-tag were expressed using baculovirus expression system and purified with Ni-Beads. BRAF protein was from Carna Biosciences, Inc. (Kobe Port Island, Japan). And the related kinase reactions were performed in a final assay volume of 10 μL using the related HTRF Assay Kit (Cisbio, Codolet, France). Reactions were according the HTRF protocol and read on an EnVision plate reader. All reactions were carried out in triplicate. […] Data were expressed as mean ± SE.

JAK2 = biological target: T2, JAK2 (Homo sapiens, UniProt O60674); assay: JAK2 kinase assay (HTRF); settings: read-out: JAK2 inhibition% at 0.8 μg/mL (~2 μM)
T2 construct: His-tag (N); made in house
Protocol: as §1

BRAF = biological target: T3, BRAF (Homo sapiens, UniProt P15056); assay: BRAF kinase assay (HTRF); settings: read-out: BRAF inhibition% at 0.8 μg/mL (~2 μM)
T3 construct: purchased Carna Biosciences, Inc
Protocol: as §1

Drak2 = biological target: T4, Drak2 (Homo sapiens, UniProt O94768); assay: Drak2 kinase assay (ADP-GLO); settings: read-out: Drak2 inhibition% at 0.8 μg/mL (~2 μM)
T4 sequence (O94768 1-372): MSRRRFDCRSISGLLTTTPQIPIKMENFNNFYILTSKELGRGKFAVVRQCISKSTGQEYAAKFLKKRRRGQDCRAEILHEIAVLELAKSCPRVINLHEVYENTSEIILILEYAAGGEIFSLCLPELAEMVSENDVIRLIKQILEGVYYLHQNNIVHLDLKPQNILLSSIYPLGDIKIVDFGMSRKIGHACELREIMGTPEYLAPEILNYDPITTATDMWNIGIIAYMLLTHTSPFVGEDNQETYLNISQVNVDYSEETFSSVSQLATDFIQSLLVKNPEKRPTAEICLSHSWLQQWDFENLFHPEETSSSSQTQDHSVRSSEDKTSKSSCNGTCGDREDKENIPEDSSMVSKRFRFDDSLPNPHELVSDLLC
Protocol: as §1

T1 sequence (P49841 whole entry): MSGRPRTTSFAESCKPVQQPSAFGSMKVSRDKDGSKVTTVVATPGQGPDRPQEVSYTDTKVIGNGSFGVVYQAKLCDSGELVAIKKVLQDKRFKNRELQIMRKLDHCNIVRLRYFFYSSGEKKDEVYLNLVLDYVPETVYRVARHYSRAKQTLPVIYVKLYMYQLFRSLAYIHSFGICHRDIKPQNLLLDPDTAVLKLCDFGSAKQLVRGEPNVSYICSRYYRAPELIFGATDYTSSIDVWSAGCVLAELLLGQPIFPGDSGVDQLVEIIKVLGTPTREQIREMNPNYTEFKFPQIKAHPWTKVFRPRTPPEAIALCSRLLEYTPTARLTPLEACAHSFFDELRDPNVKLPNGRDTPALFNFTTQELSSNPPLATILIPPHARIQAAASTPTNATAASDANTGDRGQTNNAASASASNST
T2 sequence (O60674 whole entry): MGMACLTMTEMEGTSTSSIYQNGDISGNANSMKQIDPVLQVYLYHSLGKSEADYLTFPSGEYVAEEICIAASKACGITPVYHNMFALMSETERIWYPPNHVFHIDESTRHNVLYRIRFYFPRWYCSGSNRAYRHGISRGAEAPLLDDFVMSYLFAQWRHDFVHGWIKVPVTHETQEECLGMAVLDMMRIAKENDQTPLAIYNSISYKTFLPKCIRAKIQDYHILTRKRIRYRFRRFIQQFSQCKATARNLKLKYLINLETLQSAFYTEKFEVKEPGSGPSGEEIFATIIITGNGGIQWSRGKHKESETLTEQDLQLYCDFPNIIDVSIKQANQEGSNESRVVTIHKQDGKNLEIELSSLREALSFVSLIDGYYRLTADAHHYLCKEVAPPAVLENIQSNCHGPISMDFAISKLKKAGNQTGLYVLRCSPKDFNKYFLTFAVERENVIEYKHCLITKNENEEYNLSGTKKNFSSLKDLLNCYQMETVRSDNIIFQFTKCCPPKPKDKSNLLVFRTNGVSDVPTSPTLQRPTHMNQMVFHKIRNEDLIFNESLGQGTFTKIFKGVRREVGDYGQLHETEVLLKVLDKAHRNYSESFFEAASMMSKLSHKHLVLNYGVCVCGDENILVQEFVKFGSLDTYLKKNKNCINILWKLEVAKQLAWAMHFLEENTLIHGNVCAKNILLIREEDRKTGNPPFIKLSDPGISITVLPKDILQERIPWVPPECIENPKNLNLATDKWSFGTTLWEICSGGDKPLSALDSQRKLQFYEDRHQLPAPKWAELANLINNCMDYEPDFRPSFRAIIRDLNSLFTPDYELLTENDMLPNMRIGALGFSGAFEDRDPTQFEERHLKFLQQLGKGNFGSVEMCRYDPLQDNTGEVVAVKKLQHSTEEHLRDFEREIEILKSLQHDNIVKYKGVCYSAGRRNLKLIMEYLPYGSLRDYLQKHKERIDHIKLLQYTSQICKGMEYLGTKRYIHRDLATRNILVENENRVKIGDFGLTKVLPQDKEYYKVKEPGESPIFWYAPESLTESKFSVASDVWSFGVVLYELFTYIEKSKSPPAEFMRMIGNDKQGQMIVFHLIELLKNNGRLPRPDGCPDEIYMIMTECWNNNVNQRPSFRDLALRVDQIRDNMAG
T3 sequence (P15056 whole entry): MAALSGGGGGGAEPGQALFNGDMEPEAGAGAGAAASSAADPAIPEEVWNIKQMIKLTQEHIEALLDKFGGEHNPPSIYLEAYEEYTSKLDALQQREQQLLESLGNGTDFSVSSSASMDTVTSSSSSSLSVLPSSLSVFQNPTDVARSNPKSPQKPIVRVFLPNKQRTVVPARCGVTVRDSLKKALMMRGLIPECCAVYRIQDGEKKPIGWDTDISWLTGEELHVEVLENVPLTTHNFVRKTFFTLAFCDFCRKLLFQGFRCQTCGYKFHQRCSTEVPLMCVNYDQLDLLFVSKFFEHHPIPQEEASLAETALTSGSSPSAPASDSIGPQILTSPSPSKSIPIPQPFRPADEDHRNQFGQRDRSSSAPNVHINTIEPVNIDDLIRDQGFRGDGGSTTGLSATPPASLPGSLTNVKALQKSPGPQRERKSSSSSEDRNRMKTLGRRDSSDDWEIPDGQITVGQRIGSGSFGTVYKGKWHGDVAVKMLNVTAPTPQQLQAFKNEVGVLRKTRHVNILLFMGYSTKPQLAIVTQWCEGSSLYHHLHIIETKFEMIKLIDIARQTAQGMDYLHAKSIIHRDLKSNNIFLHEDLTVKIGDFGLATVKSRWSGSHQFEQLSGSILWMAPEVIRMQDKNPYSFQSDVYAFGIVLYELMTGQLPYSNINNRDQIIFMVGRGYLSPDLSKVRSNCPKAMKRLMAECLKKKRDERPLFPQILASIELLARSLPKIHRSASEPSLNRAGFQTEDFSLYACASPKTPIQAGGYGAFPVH

In the case of `O=C1NC(=O)C(c2cn(CCCN3CCOCC3)c3ccc(Br)cc23)=C1c1noc2ccccc12` [7c, 3-(Benzo[d]isoxazol-3-yl)-4-(5-bromo-1-(3-morpholinopropyl)-1H-indol-3-yl)-1H-pyrrole-2,5-dione], the IC50 (GSK-3β; 50 nM enzyme, 30 μM ATP, 2 μM substrate peptide, triplicate, mean ± SE, read-out: GSK-3β inhibitory activity IC50 (nM) ± SE) is reported as 10.2 ± 5.9 nM, the “GSK-3β inhibitory activity, fold increase as compared to 7h” value (GSK-3β; ratio of IC50 values, versus 7h) is reported as 14 fold and the “Selectivity for GSK-3β over other tested kinases” value (GSK-3β; versus PKC-epsilon, JAK2, BRAF, IKK2 and Drak2) is reported as “high selectivity”. For the same compound, the inhibition at 2 µM (JAK2) was 0.1%, the inhibition at 2 µM (BRAF) was 3.4% and the inhibition at 2 µM (Drak2) was 1.67%.
